From publication PMC5296751, “N,N Dimethylacetamide a drug excipient that acts as bromodomain ligand for osteoporosis treatment” (Scientific Reports, 2017)

Tests used:
BRD2 = BRD2 (Homo sapiens, UniProt P25440); experiment: AlphaScreen binding inhibition assay with recombinant human BRD2
BRD4 = molecular target: T1, BRD4 (Homo sapiens, UniProt O60885); experiment: X-ray crystal structure at […] Å (soaked crystals); IC50 from AlphaScreen; type: binding
T1 construct: residues 42–168, BRD4-BD1 (N-terminal bromodomain)

Chain of BRD2 (P25440 whole entry): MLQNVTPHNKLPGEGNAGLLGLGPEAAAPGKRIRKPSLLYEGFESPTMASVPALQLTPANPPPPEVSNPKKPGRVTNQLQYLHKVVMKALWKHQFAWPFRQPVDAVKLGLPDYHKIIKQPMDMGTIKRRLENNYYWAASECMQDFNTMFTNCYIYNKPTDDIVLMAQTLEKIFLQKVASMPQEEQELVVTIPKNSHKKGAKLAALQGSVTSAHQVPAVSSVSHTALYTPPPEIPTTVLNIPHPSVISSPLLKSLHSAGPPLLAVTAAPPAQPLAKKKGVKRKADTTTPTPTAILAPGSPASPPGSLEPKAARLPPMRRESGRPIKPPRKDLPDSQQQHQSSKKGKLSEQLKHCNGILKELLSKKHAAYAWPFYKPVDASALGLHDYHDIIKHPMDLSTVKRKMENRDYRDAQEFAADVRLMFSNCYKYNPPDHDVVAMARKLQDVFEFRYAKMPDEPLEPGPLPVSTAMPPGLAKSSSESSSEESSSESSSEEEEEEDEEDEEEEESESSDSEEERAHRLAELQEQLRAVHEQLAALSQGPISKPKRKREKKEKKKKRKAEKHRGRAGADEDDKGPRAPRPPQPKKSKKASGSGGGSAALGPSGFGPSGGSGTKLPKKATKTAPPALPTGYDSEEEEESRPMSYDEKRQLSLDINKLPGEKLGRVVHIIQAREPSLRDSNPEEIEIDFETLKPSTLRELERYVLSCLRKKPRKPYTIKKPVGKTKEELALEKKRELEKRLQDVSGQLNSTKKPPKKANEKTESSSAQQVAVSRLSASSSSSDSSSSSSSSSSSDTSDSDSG

- IC50 (BRD2): 11 mM
- IC50 (BRD4): 6 mM
Structure (SMILES): CC(=O)N(C)C [DMA, N,N-Dimethylacetamide]
